How the values were obtained:
hα2C receptor = target: T1, hα2C receptor (Homo sapiens, UniProt P18825); assay: Radioligand binding experiment for α2C-adrenoceptor ([3H]raulwolscine, CHO cell membranes); details: [3H]raulwolscine binding; for IC50: read-out: h-α2C pIC50 (converted)
T1 construct: expressed in transfected cells; host or cells: CHO cells, stably transfected; membrane preparation
T1 sequence (P18825 1-462): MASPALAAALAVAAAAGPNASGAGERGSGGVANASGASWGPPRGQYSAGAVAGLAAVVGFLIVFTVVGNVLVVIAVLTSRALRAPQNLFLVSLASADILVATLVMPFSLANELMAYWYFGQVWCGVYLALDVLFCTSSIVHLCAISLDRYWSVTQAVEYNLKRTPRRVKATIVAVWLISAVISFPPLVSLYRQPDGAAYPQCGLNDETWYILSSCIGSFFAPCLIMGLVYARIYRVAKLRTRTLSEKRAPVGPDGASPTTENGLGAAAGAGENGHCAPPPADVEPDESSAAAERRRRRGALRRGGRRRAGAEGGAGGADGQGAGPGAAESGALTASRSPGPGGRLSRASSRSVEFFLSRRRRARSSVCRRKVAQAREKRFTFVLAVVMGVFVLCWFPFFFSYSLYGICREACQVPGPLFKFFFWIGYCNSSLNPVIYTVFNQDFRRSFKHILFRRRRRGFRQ

5HT-Transporter = target: T2, 5HT-Transporter (Homo sapiens, UniProt P31645); assay: Binding experiment for the 5HT-transporter ([3H]paroxetine, human platelet membranes); details: [3H]paroxetine 0.5 nM; for IC50: read-out: h-5HTT pIC50 (converted)
T2 construct: Human platelet membranes (Oceanix Biosciences Corporation, Hanover, Md., USA) were thawed; tissue Oceanix Biosciences Corporation, Hanover, Md., USA; host or cells: human platelet membranes
Method in brief: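 Filter-bound radioactivity from human platelet membranes incubated with [3H]paroxetine and test compound (buffer Tris-HCl 50 mM, 120 mM NaCl, 5 mM KCl) was counted.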

hα2A receptor = target: T3, hα2A receptor (Homo sapiens, UniProt P08913); assay: Radioligand binding experiment for α2A-adrenoceptor ([3H]raulwolscine, CHO cell membranes); details: [3H]raulwolscine binding; for IC50: read-out: h-α2A pIC50 (converted)
T3 construct: expressed in transfected cells; host or cells: CHO cells, stably transfected; membrane preparation
T3 sequence (P08913 1-465): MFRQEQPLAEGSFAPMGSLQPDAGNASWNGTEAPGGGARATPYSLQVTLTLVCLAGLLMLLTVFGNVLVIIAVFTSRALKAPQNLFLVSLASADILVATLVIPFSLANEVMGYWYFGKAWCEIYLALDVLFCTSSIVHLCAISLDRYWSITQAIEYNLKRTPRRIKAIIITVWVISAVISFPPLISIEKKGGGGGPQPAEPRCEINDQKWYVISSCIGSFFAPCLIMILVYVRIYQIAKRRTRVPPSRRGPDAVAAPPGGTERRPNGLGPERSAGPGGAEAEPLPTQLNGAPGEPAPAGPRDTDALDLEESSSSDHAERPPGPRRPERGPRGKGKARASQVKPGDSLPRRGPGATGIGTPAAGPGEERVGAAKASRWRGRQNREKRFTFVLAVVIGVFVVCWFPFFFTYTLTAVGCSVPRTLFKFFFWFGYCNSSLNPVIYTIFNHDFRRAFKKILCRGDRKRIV

T2 sequence (P31645 whole entry): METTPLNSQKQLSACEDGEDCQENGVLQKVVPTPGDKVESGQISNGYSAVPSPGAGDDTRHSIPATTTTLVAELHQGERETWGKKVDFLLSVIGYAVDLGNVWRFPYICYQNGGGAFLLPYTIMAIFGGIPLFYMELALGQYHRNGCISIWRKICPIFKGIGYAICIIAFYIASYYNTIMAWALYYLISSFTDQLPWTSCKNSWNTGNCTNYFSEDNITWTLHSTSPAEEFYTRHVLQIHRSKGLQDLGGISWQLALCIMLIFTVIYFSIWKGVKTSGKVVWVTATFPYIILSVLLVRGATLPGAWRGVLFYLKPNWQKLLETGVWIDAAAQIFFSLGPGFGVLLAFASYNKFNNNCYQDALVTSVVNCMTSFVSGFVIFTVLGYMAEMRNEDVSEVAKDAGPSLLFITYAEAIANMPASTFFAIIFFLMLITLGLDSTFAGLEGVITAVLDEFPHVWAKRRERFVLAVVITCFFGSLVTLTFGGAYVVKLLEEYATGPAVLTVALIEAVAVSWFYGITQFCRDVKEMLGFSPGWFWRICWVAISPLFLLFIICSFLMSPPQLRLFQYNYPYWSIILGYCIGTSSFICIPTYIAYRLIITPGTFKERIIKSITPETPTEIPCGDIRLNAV

SMILES | IC50 (hα2C receptor) [µM] | IC50 (5HT-Transporter) [µM] | IC50 (hα2A receptor) [µM] | h-α2C pIC50 (hα2C receptor) | h-5HTT pIC50 (5HT-Transporter) | h-α2A pIC50 (hα2A receptor)
C/C(=C\c1ccccc1)CN1CCC(Nc2nccn(CC(=O)N(C)CCN(C)C)c2=O)CC1 [1-108] | 0.00158 | 6.31 | 0.0501 | – | – | –
C/C(=C\c1ccccc1)CN1CCC(Nc2nccn(-c3cccc(CN(C)CCN(C)C)c3)c2=O)CC1 [1-109] | – | – | – | 8.6 | 6.5 | 8.2
C/C(=C\c1ccccc1)CN1CCC(Nc2nccn(CC(=O)N(C)CCN(C)Cc3ccccc3)c2=O)CC1 [1-111] | 0.000794 | 3.98 | 0.0501 | – | – | –
C/C(=C\c1ccccc1)CN1CCC(Nc2nccn(-c3ccc(C(=O)N(CCN(C)C)Cc4ccccc4)cc3)c2=O)CC1 [1-112] | 0.00316 | 0.2 | 0.0398 | – | – | –
CC(=O)NCCNC(=O)Cn1ccnc(NC2CCN(C/C(C)=C/c3ccccc3)CC2)c1=O [1-114] | 0.0126 | 3.98 | 0.2 | – | – | –
CCN(CC)C(=O)NCc1ccc(-n2ccnc(NC3CCN(C/C(C)=C/c4ccccc4)CC3)c2=O)cc1 [1-117] | – | – | – | 8.3 | 6.3 | 6.7
C/C(=C\c1ccccc1)CN1CCC(Nc2nccn(Cc3ccc(CNC(=O)NC4CCCCC4)cc3)c2=O)CC1 [1-118] | 0.0794 | 0.501 | 0.398 | – | – | –
C/C(=C\c1ccccc1)CN1CCC(Nc2nccn(CCCNC(=O)Nc3ccccc3)c2=O)CC1 [1-119] | 0.00501 | 0.158 | 0.158 | – | – | –
C/C(=C\c1ccccc1)CN1CCC(Nc2nccn(-c3ccc(NC(=O)Nc4ccc(F)cc4)cc3)c2=O)CC1 [1-120] | 0.0251 | 0.126 | 0.2 | – | – | –
C/C(=C\c1ccccc1)CN1CCC(Nc2nccn(CCCN(C)C(=O)Nc3ccccc3)c2=O)CC1 [1-121] | 0.00631 | 0.794 | 0.158 | – | – | –
C/C(=C\c1ccccc1)CN1CCC(Nc2nccn(CCCN(C(=O)Nc3ccccc3)c3ccccc3)c2=O)CC1 [1-122] | 0.00794 | 0.2 | 0.1 | – | – | –
C/C(=C\c1ccccc1)CN1CCC(Nc2nccn(CCCN(Cc3ccccc3)C(=O)Nc3ccccc3)c2=O)CC1 [1-123] | 0.0126 | 0.631 | 0.158 | – | – | –
C/C(=C\c1ccccc1)CN1CCC(Nc2nccn(Cc3ccc(CNC(=O)NCc4ccccc4)cc3)c2=O)CC1 [1-124] | 0.0631 | 0.501 | 0.251 | – | – | –
C/C(=C\c1ccccc1)CN1CCC(Nc2nccn(Cc3ccc(CNC(=O)NCCc4ccccc4)cc3)c2=O)CC1 [1-125] | 0.0631 | 0.501 | 0.158 | – | – | –
COc1cc(CNC(=O)NCc2ccc(Cn3ccnc(NC4CCN(C/C(C)=C/c5ccccc5)CC4)c3=O)cc2)cc(OC)c1 [1-126] | 0.0398 | 0.501 | 0.251 | – | – | –

More lines, now with the values ahead:

IC50 (hα2C receptor) [µM] | IC50 (5HT-Transporter) [µM] | IC50 (hα2A receptor) [µM] | h-α2C pIC50 (hα2C receptor) | h-5HTT pIC50 (5HT-Transporter) | h-α2A pIC50 (hα2A receptor) | SMILES
0.00251 | 0.2 | 0.0126 | – | – | – | C/C(=C\c1ccccc1)CN1CCC(Nc2nccn(Cc3ccc(NCCN(C)C)cc3)c2=O)CC1 [1-104]
0.00501 | 0.631 | 0.0398 | – | – | – | C/C(=C\c1ccccc1)CN1CCC(Nc2nccn(-c3ccc(CNCCN(C)C)cc3)c2=O)CC1 [1-105]
– | – | – | 8.8 | 6.1 | 7.9 | C/C(=C\c1ccccc1)CN1CCC(Nc2nccn(-c3cccc(CNCCN(C)C)c3)c2=O)CC1 [1-106]
0.00158 | 2 | 0.0316 | – | – | – | C/C(=C\c1ccccc1)CN1CCC(Nc2nccn(CC(=O)NCCCN(C)C)c2=O)CC1 [1-107]
0.00398 | 7.94 | 0.126 | – | – | – | C/C(=C\c1ccccc1)CN1CCC(Nc2nccn(CC(=O)N(CCN(C)C)Cc3ccc(F)cc3)c2=O)CC1 [1-113]
0.0794 | 0.794 | 0.251 | – | – | – | CCCNC(=O)NCc1ccc(Cn2ccnc(NC3CCN(C/C(C)=C/c4ccccc4)CC3)c2=O)cc1 [1-115]
0.126 | 0.316 | 0.2 | – | – | – | C/C(=C\c1ccccc1)CN1CCC(Nc2nccn(Cc3ccc(CNC(=O)NCCS)cc3)c2=O)CC1 [1-116]

— US20090111801A1, “SUBSTITUTED PYRAZINONE DERIVATIVES FOR USE AS A MEDICINE” (Janssen Pharmaceutica N.V., priority 2006, published 2009)
